Data taken from publication PMC12196476, “New Nitrogen-, Oxygen-, and Sulfur-Containing Heterocyclic Compounds as Anti-Colon Cancer Agents: Synthesis, Multitargeted Evaluations, Molecular Docking Simulations and ADMET Predictions” (Pharmaceuticals, 2025).
“And” between values parts separate entries of the source, which are not always exact repeats. Equal entries are not always repeated.

Assays:
[1] = system: HCT-116 colon carcinoma cells; assay: Cell viability, LDH release assay, HCT-116; conditions: Homo sapiens, HCT-116, 48 h
LoVo cells [2] = assay: Cell cycle assay (PI flow cytometry), LoVo; format: cell-based, human; conditions: 30 µg/mL, 48 h, mean of n = 2 (Figure 1E); untreated control 11.51 ± 1.24%
Experimental: Cell proliferation depends on orderly progression through the phases of the cell cycle (G1−S−G2−M). Cytotoxic agents can impair the integrity of DNA, leading to checkpoint arrest at G1/S or G2/M, which subsequently blocks proliferation. To evaluate the impact of compound 3d on cell cycle distribution, colon carcinoma cells were treated with 30 µg/mL of 3d for 48 h, followed by DNA content analysis using flow cytometry. […] In contrast, in HCT-116 cells, 3d caused an accumulation in the G1 phase, reaching 60.17 ± 1.44% versus 47.37 ± 1.68% in untreated cells (Figure 1E). […]
(§1) medium served used as negative and positive controls, respectively. Percentages of viable cells […]
(§2) wells (final concentration of 100 μg/mL), compared to the negative control, and expressed as mean value (%) ± SD from two replicates. Graphing dose-response curves representing the compound […]
(§3) (HUVECs) at final concentration of 100 μg/mL . HUVECs were grown in Dulbecco’s Modified Eagle’s Medium supplemented with 10% FBS, 2 mM glutamine (Sigma Aldrich), 100 units/mL penicillin and […] streptomycin (Life Technologies; Paisley, UK).
(§4) S3.2.5. Cell cycle assay.
(§5) HCT-116 and LoVo cultures upon treatment with compound 3d. HCT-116 and LoVo carcinoma […]
(§6) μg/mL for 48 h. […] Then, cells […]
(§7) of stained cancerous cells were determined. […]
(§8) carcinoma cells treated with compound 3d was assessed using the TMRE Mitochondrial Membrane

LoVo cells [3] = assay: Intracellular ROS level (human ROS ELISA kit), LoVo; format: cell-based; conditions: 30 µg/mL, 48 h
Experimental: (§9) To determine whether compound 3d induces oxidative stress, intracellular ROS levels were quantified after treatment (30 µg/mL, 48 h) using a human ROS ELISA kit.
(§10) A Human ROS ELISA Kit was used to measure the intracellular accumulation of ROS in the 3d-treated LoVo and HCT-116 cells. […]
as §1, §2, §3, §4, §5, §6
(§11) were fixed by mixing […] of 90% cold ethanol and stained with propidium iodide (PI) for 1 h at 37 °C. RNase A (10 mg/mL) was added in order to […] the ability of PI to bind only to DNA […]
(§12) S3.2.6. Annexin-V-FITC assay. […]
(§13) treatment with compound 3d. […]
as §7, §8

HCT-116 cells = assay: Intracellular ROS level (human ROS ELISA kit), HCT-116; format: cell-based; conditions: 30 µg/mL, 48 h
Experimental: as §9, §10, §1, §2, §3, §4, §5, §6, §11, §12, §13, §7, §8

COc1cc(/C=N/c2ncnc3sc4c(c23)CCCC4)cc(OC)c1OC [Compound 3d, (E)-N-(5,6,7,8-Tetrahydrobenzo[4,5]thieno[2,3-d]pyrimidin-4-yl)-1-(3,4,5-trimethoxyphenyl)methanimine]
viability at 100 µg/mL ([1]; read-out: Mean % of viable cells ± SD, HCT-116, 100 µg/mL, 48 h, LDH release assay): < 29%
IC50 ([1]; read-out: Mean IC50 Values in µM ± SD, HCT-116 cells): 161 µM
% of Cell population, LoVo: %G2/M (LoVo cells [2]): 24.06 ± 1.32%
ROS, Fold of control, LoVo (LoVo cells [3]): 2.6
[ROS] pg/mL ± SD, LoVo (LoVo cells [3]; control 168.6 ± 6.5, two independent experiments): 434.5 ± 20.3 pg/mL and 434.5 pg/mL
ROS, Fold of control, HCT-116 (HCT-116 cells): 2.0
[ROS] pg/mL ± SD, HCT-116 (HCT-116 cells; control 143.5 ± 6.8, two independent experiments): 290.1 ± 12.7 pg/mL and 290.1 pg/mL
